Source: patent US20260256792A1, “TREATMENT OF CHRONIC SPONTANEOUS URTICARIA BY ADMINISTERING (R)-2-[3-[4-AMINO-3-(2-FLUORO-4-PHENOXY-PHENYL)PYRAZOLO[3,4-D]PYRIMIDIN-1-YL]PIPERIDINE-1-CARBONYL]-4-METHYL-4-[4-(OXETAN-3-YL)PIPERAZIN-1-YL]PENT-2-ENENITRILE” (priority 2023, published 2026)

System: moderate-to-severe chronic spontaneous urticaria (CSU)
Assay: Phase 2 CSU study: urticaria control test (UCT)
Type: in vivo, human
Set-up: key to UCT, Mean / UCT, Median / UCT change from baseline, Mean / UCT change from baseline, Median: UCT total = sum of 4 item scores; low = low disease control
From the text: The study comprises a 12 week, randomized, double-blind, placebo-controlled, multi-center, dose-ranging efficacy and safety phase, followed by a 40 week open label extension (OLE) phase (see FIG. 1). The study consists of three phases and an optional OLE phase. […] To this end, the UCT was proposed as a tertiary endpoint in this study. […] The dermatology life quality index (DLQI) was proposed as a tertiary endpoint in this study. […] Low scores indicate high disease activity and low disease control. The UCT total score is calculated by adding all 4 individual item scores. […] The recall period is the previous 4 weeks. Patients were to complete the UCT questionnaire during their site visit.

[1] = 400 mg BID, End of study, omalizumab-naïve population
[2] = 400 mg BID, End of study, prior omalizumab use incl. incomplete responders
[3] = 400 mg BID, Week 4, ITT population
[4] = 400 mg BID, Week 4, omalizumab-naïve population
[5] = 400 mg BID, Week 4, prior omalizumab use incl. incomplete responders
[6] = 400 mg BID, Week 8, ITT population
[7] = 400 mg BID, Week 8, omalizumab-naïve population
[8] = 400 mg BID, Week 8, prior omalizumab use incl. incomplete responders
[9] = 400 mg BID, Week 12, ITT population
[10] = 400 mg BID, Week 12, omalizumab-naïve population
[11] = 400 mg BID, Week 12, prior omalizumab use incl. incomplete responders
[12] = 400 mg QPM, End of study, omalizumab-naïve population
[13] = 400 mg QPM, End of study, prior omalizumab use incl. incomplete responders
[14] = 400 mg QPM, Week 4, ITT population
[15] = 400 mg QPM, Week 4, omalizumab-naïve population
[16] = 400 mg QPM, Week 4, prior omalizumab use incl. incomplete responders

CC(C)(C=C(C#N)C(=O)N1CCC[C@@H](n2nc(-c3ccc(Oc4ccccc4)cc3F)c3c(N)ncnc32)C1)N1CCN(C2COC2)CC1 [rilzabrutinib, (R)-2-[3-[4-amino-3-(2-fluoro-4-phenoxy-phenyl)pyrazolo[3,4-d]pyrimidin-1-yl]piperidine-1-carbonyl]-4-methyl-4-[4-(oxetan-3-yl)piperazin-1-yl]pent-2-enenitrile]
UCT change from baseline, Mean [1]: 0.00 | UCT change from baseline, Median [1]: −2.00 | UCT percent change from baseline, Mean [1]: −21.27% | UCT percent change from baseline, Median [1]: −57.14% | UCT, Median [1]: 3.00 | UCT change from baseline, Median [2]: 5.50 | UCT percent change from baseline, Mean [2]: 4.33% | UCT percent change from baseline, Median [2]: 4.00% | UCT, Mean [2]: 2.67 | UCT, Median [2]: 3.00 | UCT % Change difference for rilzabrutinib vs. placebo LS Mean (95% CI) [3]: 96.74 (−24.75, 218.23) % | UCT % Change from baseline LS Mean (SE) [3]: 236.29 (42.88) % | UCT Change difference for rilzabrutinib vs. placebo LS Mean (95% CI) [3]: 0.94 (−0.87, 2.75) | UCT Change from baseline LS Mean (SE) [3]: 4.27 (0.65) | UCT Post-baseline Mean (SD) [3]: 8.56 (4.95) | UCT % Change difference for rilzabrutinib vs. placebo LS Mean (95% CI) [4]: 120.19 (−1.20, 241.59) % | UCT % Change from baseline LS Mean (SE) [4]: 263.00 (44.80) % | UCT Change difference for rilzabrutinib vs. placebo LS Mean (95% CI) [4]: 1.27 (−0.56, 3.11) | UCT Change from baseline LS Mean (SE) [4]: 4.51 (0.66) | UCT Post-baseline Mean (SD) [4]: 8.85 (4.53) | UCT change from baseline, Mean [4]: 4.21 | UCT change from baseline, Median [4]: 4.00 | UCT percent change from baseline, Mean [4]: 220.19% | UCT percent change from baseline, Median [4]: 75.00% | UCT, Mean [4]: 8.85 | UCT, Median [4]: 9.00 | UCT change from baseline, Mean [5]: 4.33 | UCT change from baseline, Median [5]: 4.00 | UCT percent change from baseline, Mean [5]: 151.39% | UCT percent change from baseline, Median [5]: 137.50% | UCT, Median [5]: 5.50 | UCT % Change difference for rilzabrutinib vs. placebo LS Mean (95% CI) [6]: 139.58 (18.06, 261.09) % | UCT % Change from baseline LS Mean (SE) [6]: 304.12 (43.11) % | UCT Change difference for rilzabrutinib vs. placebo LS Mean (95% CI) [6]: 1.01 (−0.90, 2.92) | UCT Change from baseline LS Mean (SE) [6]: 5.38 (0.68) | UCT Post-baseline Mean (SD) [6]: 10.00 (4.71) | UCT % Change difference for rilzabrutinib vs. placebo LS Mean (95% CI) [7]: 158.55 (28.05, 289.04) % | UCT % Change from baseline LS Mean (SE) [7]: 328.12 (46.96) % | UCT Change difference for rilzabrutinib vs. placebo LS Mean (95% CI) [7]: 1.14 (−0.74, 3.02) | UCT Change from baseline LS Mean (SE) [7]: 5.61 (0.69) | UCT Post-baseline Mean (SD) [7]: 10.12 (4.20) | UCT change from baseline, Mean [7]: 5.70 | UCT change from baseline, Median [7]: 5.00 | UCT percent change from baseline, Mean [7]: 290.62% | UCT percent change from baseline, Median [7]: 114.29% | UCT change from baseline, Median [8]: 11.00 | UCT percent change from baseline, Mean [8]: 248.33% | UCT percent change from baseline, Median [8]: 275.00% | UCT, Mean [8]: 9.20 | UCT, Median [8]: 14.00 | UCT % Change difference for rilzabrutinib vs. placebo LS Mean (95% CI) [9]: 109.34 (−24.34, 243.02) % | UCT % Change from baseline LS Mean (SE) [9]: 309.12 (47.68) % | UCT Change difference for rilzabrutinib vs. placebo LS Mean (95% CI) [9]: 0.71 (−1.27, 2.68) | UCT Change from baseline LS Mean (SE) [9]: 5.44 (0.71) | UCT Post-baseline Mean (SD) [9]: 9.92 (4.69) | UCT % Change difference for rilzabrutinib vs. placebo LS Mean (95% CI) [10]: 146.79 (5.56, 288.02) % | UCT % Change from baseline LS Mean (SE) [10]: 344.03 (53.11) % | UCT Change difference for rilzabrutinib vs. placebo LS Mean (95% CI) [10]: 0.80 (−1.21, 2.81) | UCT Change from baseline LS Mean (SE) [10]: 5.52 (0.74) | UCT Post-baseline Mean (SD) [10]: 10.03 (4.29) | UCT change from baseline, Mean [10]: 5.65 | UCT change from baseline, Median [10]: 4.00 | UCT percent change from baseline, Mean [10]: 301.53% | UCT percent change from baseline, Median [10]: 130.95% | UCT change from baseline, Median [11]: 8.00 | UCT percent change from baseline, Mean [11]: 246.67% | UCT percent change from baseline, Median [11]: 266.67% | UCT, Mean [11]: 9.20 | UCT change from baseline, Mean [12]: 8.50 | UCT change from baseline, Median [12]: 8.50 | UCT percent change from baseline, Mean [12]: 283.33% | UCT percent change from baseline, Median [12]: 283.33% | UCT change from baseline, Mean [13]: 8.00 | UCT change from baseline, Median [13]: 8.00 | UCT percent change from baseline, Mean [13]: 3.00% | UCT percent change from baseline, Median [13]: 3.00% | UCT, Mean [13]: 5.00 | UCT, Median [13]: 5.00 | UCT % Change difference for rilzabrutinib vs. placebo LS Mean (95% CI) [14]: −44.03 (−169.40, 81.34) % | UCT % Change from baseline LS Mean (SE) [14]: 95.52 (42.85) % | UCT Change difference for rilzabrutinib vs. placebo LS Mean (95% CI) [14]: −0.89 (−2.79, 1.00) | UCT Change from baseline LS Mean (SE) [14]: 2.44 (0.68) | UCT Post-baseline Mean (SD) [14]: 6.40 (3.11) | UCT % Change difference for rilzabrutinib vs. placebo LS Mean (95% CI) [15]: −48.50 (−174.55, 77.55) % | UCT % Change from baseline LS Mean (SE) [15]: 94.30 (43.68) % | UCT Change difference for rilzabrutinib vs. placebo LS Mean (95% CI) [15]: −0.88 (−2.74, 0.99) | UCT Change from baseline LS Mean (SE) [15]: 2.36 (0.66) | UCT Post-baseline Mean (SD) [15]: 6.35 (3.14) | UCT change from baseline, Mean [15]: 2.27 | UCT change from baseline, Median [15]: 2.00 | UCT percent change from baseline, Mean [15]: 102.47% | UCT percent change from baseline, Median [15]: 45.00% | UCT, Median [15]: 6.00 | UCT change from baseline, Mean [16]: 3.00 | UCT change from baseline, Median [16]: 3.00 | UCT percent change from baseline, Mean [16]: 60.00% | UCT percent change from baseline, Median [16]: 60.00% | UCT, Mean [16]: 8.00 | UCT, Median [16]: 8.00
